Measured values reported in the Kinase Knowledgebase extract (Sharma et al. 2016).

Biological target: CDK2 (UniProt P24941)
Test: Enzyme Assay
Conditions: concentration not given here

CS(=O)(=O)c1ccccc1S(=O)(=O)Nc1ccc2[nH]nc(-c3cccc(OC(F)(F)F)c3)c2c1
inhibition: 60%

CS(=O)(=O)c1ccccc1S(=O)(=O)Nc1ccc2[nH]nc(-c3ccccc3Cl)c2c1
inhibition: 52%

CSc1ccc(-c2n[nH]c3ccc(NS(=O)(=O)c4ccccc4S(C)(=O)=O)cc23)cc1
inhibition: 84%

O=S(=O)(Nc1ccc2[nH]nc(-c3ccccc3)c2c1)c1cccc2cccnc12
inhibition: 99%

CS(=O)(=O)c1ccccc1S(=O)(=O)Nc1ccc2[nH]nc(-c3ccc4c(c3)OCO4)c2c1
inhibition: 76%

CCCCS(=O)(=O)Nc1ccc2[nH]nc(-c3ccccc3)c2c1
inhibition: 30%

Cc1ccc(-c2n[nH]c3ccc(NS(=O)(=O)c4ccccc4S(C)(=O)=O)cc23)cc1C
inhibition: 75%

O=S(=O)(Nc1ccc2[nH]nc(-c3ccccc3)c2c1)c1cc(F)cc(F)c1
inhibition: 68%

O=C(O)c1cccc(S(=O)(=O)Nc2ccc3[nH]nc(-c4ccccc4)c3c2)c1
inhibition: 40%

Nc1n[nH]c2ccc(NS(=O)(=O)c3c(Cl)cccc3Cl)cc12
inhibition: 18%

C=Cc1ccc(-c2n[nH]c3ccc(NS(=O)(=O)c4ccccc4S(C)(=O)=O)cc23)cc1
inhibition: 77%

CS(=O)(=O)c1ccccc1S(=O)(=O)Nc1ccc2[nH]nc(-c3cccc(Cl)c3)c2c1
inhibition: 80%

Nc1cc(Cl)cc(Cl)c1S(=O)(=O)Nc1ccc2[nH]nc(-c3ccccc3)c2c1
inhibition: 58%

CS(=O)(=O)c1ccccc1S(=O)(=O)Nc1ccc2[nH]nc(-c3cc(Cl)ccc3Cl)c2c1
inhibition: 27%

CS(=O)(=O)c1ccccc1S(=O)(=O)Nc1ccc2[nH]nc(-c3cc4ccccc4s3)c2c1
inhibition: 63%

CS(=O)(=O)c1ccccc1S(=O)(=O)Nc1ccc2[nH]nc(-c3ccc(Cl)s3)c2c1
inhibition: 55%

COc1ccc(OC)c(S(=O)(=O)Nc2ccc3[nH]nc(-c4ccccc4)c3c2)c1
inhibition: 51%

CCOc1cccc(-c2n[nH]c3ccc(NS(=O)(=O)c4ccccc4S(C)(=O)=O)cc23)c1
inhibition: 60%

CC(=O)Nc1n[nH]c2ccc(NS(=O)(=O)c3cc(F)cc(F)c3)cc12
inhibition: 82%

CS(=O)(=O)c1ccccc1S(=O)(=O)Nc1ccc2[nH]nc(-c3ccc(C(F)(F)F)cc3)c2c1
inhibition: 83%

COC(=O)/C=C/c1n[nH]c2ccc(NS(=O)(=O)c3ccccc3S(C)(=O)=O)cc12
inhibition: 37%

O=S(=O)(Nc1ccc2[nH]nc(-c3ccccc3)c2c1)c1ccc2ccccc2c1
inhibition: 78%

N#Cc1cccc(S(=O)(=O)Nc2ccc3[nH]nc(-c4ccccc4)c3c2)c1
inhibition: 75%

COc1cccc(S(=O)(=O)Nc2ccc3[nH]nc(-c4ccccc4)c3c2)c1
inhibition: 68%

CSc1ccccc1-c1n[nH]c2ccc(NS(=O)(=O)c3ccccc3S(C)(=O)=O)cc12
inhibition: 19%

Cc1ccc(-c2n[nH]c3ccc(NS(=O)(=O)c4ccccc4S(C)(=O)=O)cc23)cc1N
inhibition: 78%

CS(=O)(=O)c1ccccc1S(=O)(=O)Nc1ccc2[nH]nc(-c3cccc(O)c3)c2c1
inhibition: 73%

Nc1n[nH]c2ccc(NS(=O)(=O)c3cc(F)cc(F)c3)cc12
inhibition: 0%

CS(=O)(=O)c1ccccc1S(=O)(=O)Nc1ccc2[nH]nc(-c3ccc(OC(F)(F)F)cc3)c2c1
inhibition: 61%

CCSc1ccc(-c2n[nH]c3ccc(NS(=O)(=O)c4ccccc4S(C)(=O)=O)cc23)cc1
inhibition: 77%

Cc1cc(C)cc(-c2n[nH]c3ccc(NS(=O)(=O)c4ccccc4S(C)(=O)=O)cc23)c1
inhibition: 72%

CS(=O)(=O)c1ccccc1S(=O)(=O)Nc1ccc2[nH]nc(-c3ccc(Cl)cc3)c2c1
inhibition: 96%

O=S(=O)(Nc1ccc2[nH]nc(-c3ccccc3)c2c1)c1ccccc1F
inhibition: 81%

CS(=O)(=O)c1ccccc1S(=O)(=O)Nc1ccc2[nH]nc(-c3ccc(-c4ccccc4)cc3)c2c1
inhibition: 41%

CS(=O)(=O)c1ccccc1S(=O)(=O)Nc1ccc2[nH]nc(-c3ccc4[nH]ccc4c3)c2c1
inhibition: 73%

CS(=O)(=O)c1ccccc1S(=O)(=O)Nc1ccc2[nH]nc(-c3cccc(OCc4ccccc4)c3)c2c1
inhibition: 0%

CS(=O)(=O)c1ccccc1S(=O)(=O)Nc1ccc2[nH]nc(-c3cccc(N)c3)c2c1
inhibition: 88%

CS(=O)(=O)c1ccccc1S(=O)(=O)Nc1ccc2[nH]nc(-c3cccc([N+](=O)[O-])c3)c2c1
inhibition: 82%

CS(=O)(=O)c1ccccc1S(=O)(=O)Nc1ccc2[nH]nc(-c3cc(Br)cc(Br)c3)c2c1
inhibition: 45%

CS(=O)(=O)c1ccccc1S(=O)(=O)Nc1ccc2[nH]nc(-c3ccoc3)c2c1
inhibition: 80%

CS(=O)(=O)c1ccccc1S(=O)(=O)Nc1ccc2[nH]nc(-c3ccc(Oc4ccccc4)cc3)c2c1
inhibition: 20%

Cc1cc2[nH]nc(-c3ccccc3)c2cc1NS(=O)(=O)c1ccccc1S(C)(=O)=O
inhibition: 62%

CS(=O)(=O)c1ccccc1S(=O)(=O)Nc1ccc2[nH]nc(-c3ccc(CO)cc3)c2c1
inhibition: 73%

CN(C)c1ccc(-c2n[nH]c3ccc(NS(=O)(=O)c4ccccc4S(C)(=O)=O)cc23)cc1
inhibition: 81%

Cc1ccc(-c2n[nH]c3ccc(NS(=O)(=O)c4ccccc4S(C)(=O)=O)cc23)cc1F
inhibition: 70%

O=S(=O)(Nc1ccc2[nH]nc(-c3ccccc3)c2c1)c1ccc(Cl)s1
inhibition: 65%

CS(=O)(=O)c1ccccc1S(=O)(=O)Nc1ccc2[nH]nc(NCc3ccccc3)c2c1
inhibition: 92%

COc1ccc(-c2n[nH]c3ccc(NS(=O)(=O)c4ccccc4S(C)(=O)=O)cc23)cc1OC
inhibition: 76%

O=S(=O)(Nc1ccc2[nH]nc(-c3ccccc3)c2c1)c1cccc2ccccc12
inhibition: 90%

O=S(=O)(Nc1ccc2[nH]nc(-c3ccc(O)cc3)c2c1)c1ccccc1
inhibition: 89%

COC(=O)c1cccc(-c2n[nH]c3ccc(NS(=O)(=O)c4ccccc4S(C)(=O)=O)cc23)c1
inhibition: 64%

CS(=O)(=O)c1ccccc1S(=O)(=O)Nc1ccc2[nH]nc(-c3ccc(Br)cc3F)c2c1
inhibition: 65%

CS(=O)(=O)c1ccccc1S(=O)(=O)Nc1ccc2[nH]nc(-c3ccc(-c4ccccc4)c(F)c3)c2c1
inhibition: 0%

C[Si](C)(C)C#Cc1cccc(-c2n[nH]c3ccc(NS(=O)(=O)c4ccccc4S(C)(=O)=O)cc23)c1
inhibition: 7%

COc1ccc2[nH]c(-c3n[nH]c4ccc(NS(=O)(=O)c5ccccc5S(C)(=O)=O)cc34)cc2c1
inhibition: 100%

CS(=O)(=O)c1ccccc1S(=O)(=O)Nc1ccc2[nH]nc(Nc3ccccc3)c2c1
inhibition: 100%

COc1ccc(-c2n[nH]c3ccc(NS(=O)(=O)c4ccccc4S(C)(=O)=O)cc23)c(OC)c1OC
inhibition: 21%

O=S(=O)(Nc1ccc2[nH]nc(-c3ccccc3)c2c1)c1ccc(F)c(F)c1
inhibition: 67%

CS(=O)(=O)c1ccccc1S(=O)(=O)Nc1ccc2[nH]nc(-c3ccccc3N)c2c1
inhibition: 50%

CS(=O)(=O)c1ccccc1S(=O)(=O)Nc1ccc2[nH]nc(-c3ccc(Cl)cc3Cl)c2c1
inhibition: 23%

CS(=O)(=O)c1ccccc1S(=O)(=O)Nc1ccc2[nH]nc(-c3cc4ccccc4[nH]3)c2c1
inhibition: 99%

CS(=O)(=O)c1ccc(S(=O)(=O)Nc2ccc3[nH]nc(-c4ccccc4)c3c2)cc1
inhibition: 50%

CS(=O)(=O)c1ccccc1S(=O)(=O)Nc1ccc2[nH]nc(-c3ccc(Br)cc3)c2c1
inhibition: 75%

CS(=O)(=O)c1ccccc1S(=O)(=O)Nc1ccc2[nH]nc(-c3ccc(C(=O)O)cc3)c2c1
inhibition: 61%

CS(=O)(=O)c1ccccc1S(=O)(=O)Nc1ccc2[nH]nc(-c3cccc(F)c3F)c2c1
inhibition: 50%

CNc1n[nH]c2ccc(NS(=O)(=O)c3ccccc3S(C)(=O)=O)cc12
inhibition: 51%

CS(=O)(=O)c1ccccc1S(=O)(=O)Nc1ccc2[nH]nc(/C=C/c3ccc(Cl)cc3)c2c1
inhibition: 96%

CCc1ccc(-c2n[nH]c3ccc(NS(=O)(=O)c4ccccc4S(C)(=O)=O)cc23)cc1
inhibition: 65%

O=C(Nc1n[nH]c2ccc(NS(=O)(=O)c3cc(F)cc(F)c3)cc12)c1ccccc1
inhibition: 82%

CS(=O)(=O)c1ccccc1S(=O)(=O)Nc1ccc2[nH]nc(-c3cccc(C(F)(F)F)c3)c2c1
inhibition: 81%

CS(=O)(=O)c1ccccc1S(=O)(=O)Nc1ccc2[nH]nc(-c3ccc(F)cc3F)c2c1
inhibition: 83%

CS(=O)(=O)c1ccccc1S(=O)(=O)Nc1ccc2[nH]nc(-c3ccc(F)cc3)c2c1
inhibition: 94%

CC(C)c1cc(C(C)C)c(S(=O)(=O)Nc2ccc3[nH]nc(-c4ccccc4)c3c2)c(C(C)C)c1
inhibition: 50%

CS(=O)(=O)c1ccccc1S(=O)(=O)Nc1ccc2[nH]nc(-c3cccc(Cl)c3Cl)c2c1
inhibition: 0%

Cc1ccc(-c2n[nH]c3ccc(NS(=O)(=O)c4ccccc4S(C)(=O)=O)cc23)cc1
inhibition: 66%

CS(=O)(=O)c1ccccc1S(=O)(=O)Nc1ccc2[nH]nc(-c3cc4cccnc4[nH]3)c2c1
inhibition: 0%

O=S(=O)(Nc1ccc2[nH]nc(-c3ccccc3)c2c1)C1CCNCC1
inhibition: 13%

CS(=O)(=O)c1ccccc1S(=O)(=O)Nc1ccc2[nH]nc(-c3cccc(F)c3)c2c1
inhibition: 69%

COc1ccccc1-c1n[nH]c2ccc(NS(=O)(=O)c3ccccc3S(C)(=O)=O)cc12
inhibition: 50%

O=S(=O)(Nc1ccc2[nH]nc(-c3ccccc3)c2c1)c1ccccc1OC(F)(F)F
inhibition: 74%

CS(=O)(=O)c1ccc(-c2n[nH]c3ccc(NS(=O)(=O)c4ccccc4S(C)(=O)=O)cc23)cc1
inhibition: 75%

O=[N+]([O-])c1ccccc1S(=O)(=O)Nc1ccc2[nH]nc(-c3ccccc3)c2c1
inhibition: 81%
